Source: patent US20250382317A1 (EVEXTA BIO, priority 2022, published 2025)
≈ marks a conversion by molar mass, not a printed value. Where a name gives a salt, the structure may show the parent alone.

Legend:
physchem = settings: pH 7.4, aqueous buffer, thermodynamic from solid
Procedure: (§1) For each compound, three solutions were prepared in HCl 0.01N (pH 1.0) at 500 μM and three solutions in phosphate saline buffer (pH 7.4) at 500 μM. The solutions were prepared by dissolving each compound in the adequate solvent in opaque tubes and stirred 24 hours at room temperature. After 24 hours, for each solution, an aliquot was centrifuged 10 minutes at 3 500 rpm in order to separate the insoluble fraction from the soluble fraction. The supernatant was taken and diluted in H2O (1/20) before injection in LC-MSMS. After HPLC separation, analytes are detected and quantified by mass spectrometry. A standard curve is performed for each test substance. The solubility of each test substance was determined by calculating the concentration of each supernatant according to the standard curve.

[1] = Solubility in HCl 0.01N (pH 1.0) and phosphate saline buffer (pH 7.4), LC-MSMS; settings: thermodynamic from solid
Procedure: as §1

Cathepsin B = Cathepsin B (Homo sapiens, UniProt P07858); assay: Cathepsin-B mediated drug release test; format: in vitro ADME; settings: 10 units/mL activated Cathepsin B, 25 mM sodium acetate pH 5.5, 37° C., 0-120 min, LC-MS of released free drug (FIG. 1)
Procedure: Drug release of (Z)-3-(2-(5-bromo-1H-indol-3-yl)-2-cyanovinyl)-4-methoxybenzonitrile from Example 27 was performed using cathepsin B enzyme.
Cathepsin B (50 units/mL) was preincubated in activation buffer containing 25 mM sodium acetate (pH 5.5), 30 mM DTT and 15 mM EDTA for 15 min at 37° C. and then added as a 20% (v/v) addition to initiate each reaction.
Final in vitro cathepsin B reaction mixtures will contain 25 mM sodium acetate (pH 5.5), 10 units/mL activated Cathepsin B, 30 mM DTT and 15 mM EDTA, and 0.5 μg/mL of Example 27 in a 2.5% (v/v) incubation sample background.
Reactions will be terminated by addition of organic solvent and the supernatant analyzed by LC-MS to quantify released free drug.

[2] = phosphate saline buffer, pH 7.4, aqueous buffer
[3] = HCl 0.01N, pH 1, simulated gastric fluid

Compound	solubility (physchem) [µM]	solubility at 24 h [1, 2] [µM]	solubility at 24 h [1, 3] [µM]	Drug release of (Z)-3-(2-(5-bromo-1H-indol-3-yl)-2-cyanovinyl)-4-methoxybenzonitrile (Cathepsin B)
COc1ccc(C#N)cc1/C=C(\C#N)c1cn(C(=O)OCc2ccc(NC(=O)[C@H](CCCNC(N)=O)NC(=O)[C@@H](N)C(C)C)cc2)c2ccc(Br)cc12 [Example 21, hydrochloride]	471			
COc1ccc(C#N)cc1/C=C(\C#N)c1cn(C(=O)CCP(=O)(O)O)c2ccc(Br)cc12 [Example 2, (Z)-3-(5-bromo-3-(1-cyano-2-(5-cyano-2-methoxyphenyl)vinyl)-1H-indol-1-yl)-3-oxopropylphosphonic acid]		12 (≈ 6.17 µg/mL)		
COc1ccc(C#N)cc1/C=C(\C#N)c1cn(C(=O)CCCP(=O)([O-])[O-])c2ccc(Br)cc12.[Na+].[Na+] [Example 13, disodium (Z)-4-(5-bromo-3-(1-cyano-2-(5-cyano-2-methoxyphenyl)vinyl)-1H-indol-1-yl)-4-oxobutylphosphonate]		45	19	
COc1ccc(C#N)cc1/C=C(\C#N)c1cn(C(=O)OCc2ccc(O[C@@H]3O[C@H](C(=O)O)[C@@H](O)[C@H](O)[C@H]3O)cc2)c2ccc(Br)cc12 [Example 19, (2S,3S,4S,5R,6S)-6-[4-[[5-bromo-3-[(Z)-1-cyano-2-(5-cyano-2-methoxy-phenyl)vinyl]indole-1-carbonyl]oxymethyl]phenoxy]-3,4,5-trihydroxy-tetrahydropyran-2-carboxylic acid]		452 (≈ 318 µg/mL)		
COc1ccc(C#N)cc1/C=C(\C#N)c1cn(C(=O)OCc2ccc(NC(=O)[C@H](CCCNC(N)=O)NC(=O)[C@@H](NC(=O)CCOCCOCCOCCOCCNC(=O)CCN3C(=O)C=CC3=O)C(C)C)cc2)c2ccc(Br)cc12 [Example 22, [4-[[(2S)-2-[[(2S)-2-[3-[2-[3-(2,5-dioxopyrrol-1-yl)propanoylamino]ethoxy](peg4)propanoylamino]-3-methyl-butanoyl]amino]-5-ureido-pentanoyl]amino]phenyl]methyl 5-bromo-3-[(Z)-1-cyano-2-(5-cyano-2-methoxy-phenyl)vinyl]indole-1-carboxylate]	2 (≈ 2.36 µg/mL)			
COc1ccc(C#N)cc1/C=C(\C#N)c1cn(C(=O)CCP(=O)([O-])O)c2ccc(Br)cc12.[Na+] [Example 7, sodium (Z)-hydrogen3-(5-bromo-3-(1-cyano-2-(5-cyano-2-methoxyphenyl)vinyl)-1H-indol-1-yl)-3-oxopropylphosphonate]		103	< 5	
COc1ccc(C#N)cc1/C=C(\C#N)c1c[nH]c2ccc(Br)cc12 [Example 38 of WO 2014/086964, (Z)-3-(2-(5-bromo-1H-indol-3-yl)-2-cyanovinyl)-4-methoxybenzonitrile, reference compound]		< 5	< 5	
COc1ccc(C#N)cc1/C=C(\C#N)c1cn(C(=O)CCCCCCP(=O)(O)O)c2ccc(Br)cc12 [Example 3, (Z)-7-(5-bromo-3-(1-cyano-2-(5-cyano-2-methoxyphenyl)vinyl)-1H-indol-1-yl)-7-oxoheptylphosphonic acid]		294 (≈ 168 µg/mL)		
COc1ccc(C#N)cc1/C=C(\C#N)c1cn(C(=O)OCc2ccc(NC(=O)[C@H](CCCNC(N)=O)NC(=O)[C@@H](NC(=O)[C@H](CS(=O)(=O)O)NC(=O)CCOCCOCCOCCOCCNC(=O)CCN3C(=O)C=CC3=O)C(C)C)cc2)c2ccc(Br)cc12 [Example 26]	175 (≈ 233 µg/mL)			
COc1ccc(C#N)cc1/C=C(\C#N)c1cn(C(=O)CCCCP(=O)(O)O)c2ccc(Br)cc12 [Example 1, (Z)-5-(5-bromo-3-(1-cyano-2-(5-cyano-2-methoxyphenyl)vinyl)-1H-indol-1-yl)-5-oxopentylphosphonic acid]		497 (≈ 270 µg/mL)		
COc1ccc2c(/C(C#N)=C/c3cc(C#N)ccc3OC)cn(C(=O)CCCCCCP(=O)([O-])O)c2c1.[Na+] [Example 12, sodium (Z)-hydrogen7-(3-(1-cyano-2-(5-cyano-2-methoxyphenyl)vinyl)-6-methoxy-1H-indol-1-yl)-7-oxoheptylphosphonate]		465	109	
COc1ccc(C#N)cc1/C=C(\C#N)c1cn(C(=O)OCc2ccc(NC(=O)[C@H](CCCNC(N)=O)NC(=O)[C@@H](NC(=O)C(CS(=O)(=O)O)NC(=O)OC(C)(C)C)C(C)C)cc2)c2ccc(Br)cc12 (some centres unmarked) [Example 24]	201 (≈ 208 µg/mL)			
COc1ccc2c(/C(C#N)=C/c3cc(C#N)ccc3OC)cn(C(=O)CCCCP(=O)([O-])O)c2c1.[Na+] [Example 11, sodium (Z)-hydrogen5-(3-(1-cyano-2-(5-cyano-2-methoxyphenyl)vinyl)-6-methoxy-1H-indol-1-yl)-5-oxopentylphosphonate]		476	10	
COc1ccc(C#N)cc1/C=C(\C#N)c1cn(C(=O)OCc2ccc(NC(=O)[C@H](CCCNC(N)=O)NC(=O)[C@@H](NC(=O)[C@H](CS(=O)(=O)O)NC(=O)CCOCCOCCOCCOCCNC(=O)CCN3C(=O)CC(SC[C@H](NC(C)=O)C(=O)O)C3=O)C(C)C)cc2)c2ccc(Br)cc12 (stereo partly drawn) [Example 27, N-acetyl-S-(1-((R)-2-(((S)-1-(((S)-1-((4-(((5-bromo-3-((Z)-1-cyano-2-(5-cyano-2-methoxyphenyl)vinyl)-1H-indole-1-carbonyl)oxy)methyl)phenyl)amino)-1-oxo-5-ureidopentan-2-yl)amino)-3-methyl-1-oxobutan-2-yl)carbamoyl)-4,20-dioxo-1-sulfo-7,10,13,16-tetraoxa-3,19-diazadocosan-22-yl)-2,5-dioxopyrrolidin-3-yl)-L-cysteine]				efficient drug release
COc1ccc2c(/C(C#N)=C/c3cc(C#N)ccc3OC)cn(C(=O)CCCCP(=O)(O)O)c2c1 [Example 4, (Z)-5-(3-(1-cyano-2-(5-cyano-2-methoxyphenyl)vinyl)-6-methoxy-1H-indol-1-yl)-5-oxopentylphosphonic acid]		33 (≈ 16.3 µg/mL)		
COc1ccc(C#N)cc1/C=C(\C#N)c1cn(C(=O)CCCP(=O)([O-])O)c2ccc(Br)cc12.[Na+] [Example 8, sodium (Z)-hydrogen4-(5-bromo-3-(1-cyano-2-(5-cyano-2-methoxyphenyl)vinyl)-1H-indol-1-yl)-4 oxobutylphosphonate]		71	< 5	
COc1ccc(C#N)cc1/C=C(\C#N)c1cn(C(=O)CCCCCCP(=O)([O-])O)c2ccc(Br)cc12.[Na+] [Example 10, sodium (Z)-hydrogen7-(5-bromo-3-(1-cyano-2-(5-cyano-2-methoxyphenyl)vinyl)-1H-indol-1-yl)-7-oxoheptylphosphonate]		141	93	
COc1ccc(C#N)cc1/C=C(\C#N)c1cn(C(=O)CCCCP(=O)([O-])O)c2ccc(Br)cc12.[Na+] [Example 6, Sodium (Z)-hydrogen5-(5-bromo-3-(1-cyano-2-(5-cyano-2-methoxyphenyl)vinyl)-1H-indol-1-yl)-5-oxopentylphosphonate]		206	34	
COc1ccc(C#N)cc1/C=C(\C#N)c1cn(C(=O)CCCCP(=O)([O-])[O-])c2ccc(Br)cc12.[Na+].[Na+] [Example 14, disodium (Z)-5-(5-bromo-3-(1-cyano-2-(5-cyano-2-methoxyphenyl)vinyl)-1H-indol-1-yl)-5-oxopentylphosphonate]		180		
COc1ccc(C#N)cc1/C=C(\C#N)c1cn(C(=O)CCCP(=O)(O)O)c2ccc(Br)cc12 [Example 16, (S)-2,6-diaminohexanoic acid compound with (Z)-4-(5-bromo-3-(1-cyano-2-(5-cyano-2-methoxyphenyl)vinyl)-1H-indol-1-yl)-4-oxobutylphosphonic acid (2:1)]		35 (≈ 18.5 µg/mL)	< 10	
